Read-outs that look alike come from different tables or passages of the source.
Test system: C. parvum
Assay: In vitro inhibition of C. parvum development in HCT-8 cells
Assay type: cell-based
Conditions: Cryptosporidium parvum
[1] = HCT-8 cells, Table 4, read-out: EC50 for inhibition of C. parvum development in HCT-8 cells
[2] = average EC50, C. parvum in HCT-8 cells, read-out: Cp HTC-8 Avg EC50

| SMILES | EC50 [1] | EC50 [2] |
| --- | --- | --- |
| O=C(Cc1ccc(S(F)(F)(F)(F)F)cc1)N1CCN(c2ccc3nncn3n2)CC1 [Example 10441, 2-[4-(pentafluoro-λ^6-sulfanyl)phenyl]-1-(4-{[1,2,4]triazolo[4,3-b]pyridazin-6-yl}piperazin-1-yl)ethan-1-one] | 11.5 µM |  |
| O=C(Cc1cc(Cl)ccc1Cl)N1CCN(c2ccc3nncn3n2)CC1 [Example 2746, 2-(2,5-dichlorophenyl)-1-(4-{[1,2,4]triazolo[4,3-b]pyridazin-6-yl}piperazin-1-yl)ethan-1-one] | 33 µM |  |
| O=C(N1CCN(c2ccc3nncn3n2)CC1)C(F)(F)c1ccc(Cl)c(Cl)c1 [Example 2799, 2-(3,4-dichlorophenyl)-2,2-difluoro-1-(4-{[1,2,4]triazolo[4,3-b]pyridazin-6-yl}piperazin-1-yl)ethan-1-one] | 2.3 µM |  |
| O=C(Cc1cccc(Cl)c1Cl)N1CCN(c2ccc3nncn3n2)CC1 [Example 2798, 2-(2,3-dichlorophenyl)-1-(4-{[1,2,4]triazolo[4,3-b]pyridazin-6-yl}piperazin-1-yl)ethan-1-one] | > 25 µM |  |
| O=C(Cc1cccc(Cl)c1)N1CCN(c2ccc3nncn3n2)CC1 [Example 2764, 2-(3-chlorophenyl)-1-(4-{[1,2,4]triazolo[4,3-b]pyridazin-6-yl}piperazin-1-yl)ethan-1-one] | 3.61 µM |  |
| O=C(Cc1ccc(CN2CCOCC2)cc1)N1CCN(c2ccc3nncn3n2)CC1 [Example 2817, 2-{4-[(Morpholin-4-yl)methyl]phenyl}-1-(4-{[1,2,4]triazolo[4,3-b]pyridazin-6-yl}piperazin-1-yl)ethan-1-one] | > 25 µM |  |
| O=C(Cc1ccc(COn2nnc3ccccc32)cc1)N1CCN(c2ccc3nncn3n2)CC1 [Example 2796, 2-{4-[(1H-1,2,3-benzotriazol-1-yloxy)methyl]phenyl}-1-(4-{[1,2,4]triazolo[4,3-b]pyridazin-6-yl}piperazin-1-yl)ethan-1-one] | > 25 µM |  |
| O=C(Cc1ccc([N+](=O)[O-])cc1)N1CCN(c2ccc3nncn3n2)CC1 [Example 2755, 2-(4-nitrophenyl)-1-(4-{[1,2,4]triazolo[4,3-b]pyridazin-6-yl}piperazin-1-yl)ethan-1-one] | 2.58 µM |  |
| O=C(Cc1cccc2ccccc12)N1CCN(c2ccc3nncn3n2)CC1 [Example 2257, 2-(naphthalen-1-yl)-1-(4-{[1,2,4]triazolo[4,3-b]pyridazin-6-yl}piperazin-1-yl)ethan-1-one] | 17.1 µM |  |
| O=C(Cc1ccc(CO)cc1)N1CCN(c2ccc3nncn3n2)CC1 [Example 2818] | > 25 µM |  |
| O=C(Cc1ccc(Cl)c(Cl)c1)N1CCN(c2ccc3nnc(-c4ccccc4)n3n2)CC1 [Example 2807, 2-(3,4-dichlorophenyl)-1-(4-{3-phenyl-[1,2,4]triazolo[4,3-b]pyridazin-6-yl}piperazin-1-yl)ethan-1-one] | 15 µM |  |
| O=C(N1CCN(c2ccc3nncn3n2)CC1)C1(c2ccc(Cl)c(Cl)c2)CC1 [Example 2766, 1-[1-(3,4-dichlorophenyl)cyclopropanecarbonyl]-4-{[1,2,4]triazolo[4,3-b]pyridazin-6-yl}piperazine] | 8.33 µM |  |
| O=C(Cc1ccc(-c2ccccc2)cc1)N1CCN(c2ccc3nncn3n2)CC1 [Example 2809, 2-{[1,1′-biphenyl]-4-yl}-1-(4-{[1,2,4]triazolo[4,3-b]pyridazin-6-yl}piperazin-1-yl)ethan-1-one] | > 25 µM |  |
| O=C(Cc1ccc(Cl)c(Cl)c1)N1CCN(c2ccc3nnc(Cc4ccccc4)n3n2)CC1 [Example 10249, 1-(4-{3-benzyl-[1,2,4]triazolo[4,3-b]pyridazin-6-yl}piperazin-1-yl)-2-(3,4-dichlorophenyl)ethan-1-one] | 16 µM |  |
| O=C(Cc1ccc(Cl)cc1Cl)N1CCN(c2ccc3nncn3n2)CC1 [Example 2721, 2-(2,4-dichlorophenyl)-1-(4-{[1,2,4]triazolo[4,3-b]pyridazin-6-yl}piperazin-1-yl)ethan-1-one] | > 25 µM |  |
| N#Cc1ccc(CC(=O)N2CCN(c3ccc4nncn4n3)CC2)cc1 [Example 2797, 4-[2-oxo-2-(4-{[1,2,4]triazolo[4,3-b]pyridazin-6-yl}piperazin-1-yl)ethyl]benzonitrile] | 11 µM |  |
| O=C(Cc1ccc2c(c1)OCO2)N1CCN(c2ccc3nncn3n2)CC1 [Example 10422, 2-(2H-1,3-benzodioxol-5-yl)-1-(4-{[1,2,4]triazolo[4,3-b]pyridazin-6-yl}piperazin-1-yl)ethan-1-one] | 10.4 µM |  |
| CC(C)(C)OC(=O)NCC#Cc1ccc(CC(=O)N2CCN(c3ccc4nncn4n3)CC2)cc1 [Example 2811, Tert-butyl N-(3-{4-[2-oxo-2-(4-{[1,2,4]triazolo[4,3-b]pyridazin-6-yl}piperazin-1-yl)ethyl]phenyl}prop-2-yn-1-yl)carbamate] | 12.8 µM |  |
| O=C(Cc1cccc(Br)c1)N1CCN(c2ccc3nncn3n2)CC1 [Example 2760, 2-(3-bromophenyl)-1-(4-{[1,2,4]triazolo[4,3-b]pyridazin-6-yl}piperazin-1-yl)ethan-1-one] | 2.29 µM |  |
| O=C(Cc1ccc2ccccc2c1)N1CCN(c2ccc3nncn3n2)CC1 [Example 2749, 2-(naphthalen-2-yl)-1-(4-{[1,2,4]triazolo[4,3-b]pyridazin-6-yl}piperazin-1-yl)ethan-1-one] | 12.4 µM |  |
| O=C(Cc1ccccc1Cl)N1CCN(c2ccc3nncn3n2)CC1 [Example 2178, 2-(2-chlorophenyl)-1-(4-{[1,2,4]triazolo[4,3-b]pyridazin-6-yl}piperazin-1-yl)ethan-1-one] | > 25 µM |  |
| COc1cccc(CC(=O)N2CCN(c3ccc4nncn4n3)CC2)c1 [Example 2762, 2-(3-methoxyphenyl)-1-(4-{[1,2,4]triazolo[4,3-b]pyridazin-6-yl}piperazin-1-yl)ethan-1-one] | 16.4 µM |  |
| O=C(Cc1c(F)c(F)c(F)c(F)c1F)N1CCN(c2ccc3nncn3n2)CC1 [Example 10090, 2-(2,3,4,5,6-pentafluorophenyl)-1-(4-{[1,2,4]triazolo[4,3-b]pyridazin-6-yl}piperazin-1-yl)ethan-1-one] | > 50 µM |  |
| O=C(Cc1ccc(Cl)c(Cl)c1)N1CCN(c2ccc3nnc(-c4ccnc(C(F)(F)F)c4)n3n2)CC1 [Example 10262, 2-(3,4-dichlorophenyl)-1-(4-{3-[2-(trifluoromethyl)pyridin-4-yl]-[1,2,4]triazolo[4,3-b]pyridazin-6-yl}piperazin-1-yl)ethan-1-one] | 6.11 µM |  |

Now from value to compound:

| EC50 [1] | EC50 [2] | SMILES |
| --- | --- | --- |
| 0.0687 µM | 0.0686 µM | O=C(Cc1ccc(F)c(C(F)(F)F)c1)N1CCN(c2ccc3nncn3n2)CC1 [Example 10482, 2-[4-fluoro-3-(trifluoromethyl)phenyl] -1-(4-{[1,2,4]triazolo[4,3-b]pyridazin-6-yl}piperazin-1-yl)ethan-1-one] |
| 2.25 µM |  | O=C(C(=O)N1CCN(c2ccc3nncn3n2)CC1)c1ccc(Cl)c(Cl)c1 [Example 2765, 1-(3,4-dichlorophenyl)-2-(4-{ [1,2,4]triazolo[4,3-b]pyridazin-6-yl}piperazin-1-yl)ethane-1,2-dione] |
| 0.251 µM | 0.251 µM | O=C(Cc1ccc(Br)c(Cl)c1)N1CCN(c2ccc3nncn3n2)CC1 [Example 10238, 2-(4-bromo-3-chlorophenyl)-1-(4-{[1,2,4]triazolo[4,3-b]pyridazin-6-yl}piperazin-1-yl)ethan-1-one] |
| 0.76 µM | 0.76 µM | O=C(Cc1ccc(F)c(F)c1)N1CCN(c2ccc3nncn3n2)CC1 [Example 2800, 2-(3,4-difluorophenyl)-1-(4-{[1,2,4]triazolo[4,3-b]pyridazin-6-yl}piperazin-1-yl)ethan-1-one] |
| 0.99 µM | 0.99 µM | O=C(Cc1cc(Cl)cc(Cl)c1)N1CCN(c2ccc3nncn3n2)CC1 [Example 2747, 2-(3,5-dichlorophenyl)-1-(4-{[1,2,4]triazolo[4,3-b]pyridazin-6-yl}piperazin-1-yl)ethan-1-one] |
| 0.88 µM | 0.88 µM | O=C(Cc1cc(F)cc(Cl)c1)N1CCN(c2ccc3nncn3n2)CC1 [Example 10483, 2-(3-chloro-5-fluorophenyl)-1-(4-{[1,2,4]triazolo[4,3-b]pyridazin-6-yl}piperazin-1-yl)ethan-1-one] |
| 1.26 µM |  | Cc1ccc(CC(=O)N2CCN(c3ccc4nncn4n3)CC2)cc1Cl [Example 2756, 2-(3-chloro-4-methylphenyl)-1-(4-{[1,2,4]triazolo[4,3-b]pyridazin-6-yl}piperazin-1-yl)ethan-1-one] |
| 0.883 µM | 0.883 µM | C#Cc1ccc(CC(=O)N2CCN(c3ccc4nncn4n3)CC2)cc1 [Example 10046, 2-(4-ethynylphenyl)-1-(4-{[1,2,4]triazolo[4,3-b]pyridazin-6-yl}piperazin-1-yl)ethan-1-one] |
| 0.272 µM | 0.272 µM | O=C(Cc1ccc(Cl)c(C(F)(F)F)c1)N1CCN(c2ccc3nncn3n2)CC1 [Example 10481, 2-[4-chloro-3-(trifluoromethyl)phenyl] -1-(4-{[1,2,4]triazolo[4,3-b]pyridazin-6-yl}piperazin-1-yl)ethan-1-one] |
| 0.773 µM | 0.773 µM | O=C(Cc1ccc(Br)c(F)c1)N1CCN(c2ccc3nncn3n2)CC1 [Example 10240, 2-(4-bromo-3-fluorophenyl)-1-(4-{[1,2,4]triazolo[4,3-b]pyridazin-6-yl}piperazin-1-yl)ethan-1-one] |
| 1.12 µM |  | O=C(Cc1ccc(Br)cc1)N1CCN(c2ccc3nncn3n2)CC1 [Example 2767, 2-(4-bromophenyl)-1-(4-{[1,2,4]triazolo[4,3-b]pyridazin-6-yl}piperazin-1-yl)ethan-1-one] |
| 0.121 µM | 0.121 µM | O=C(Cc1ccc(Cl)c(Br)c1)N1CCN(c2ccc3nncn3n2)CC1 [Example 10239, 2-(3-bromo-4-chlorophenyl)-1-(4-{[1,2,4]triazolo[4,3-b]pyridazin-6-yl}piperazin-1-yl)ethan-1-one] |
| 1.12 µM |  | O=C(Cc1cccc(S(F)(F)(F)(F)F)c1)N1CCN(c2ccc3nncn3n2)CC1 [Example 10442, 2-[3-(pentafluoro-λ^6-sulfanyl)phenyl]-1-(4-{[1,2,4]triazolo[4,3-b]pyridazin-6-yl}piperazin-1-yl)ethan-1-one] |
